Entries after “also recorded” stand apart in the source; their conditions may differ. Read-outs that look alike come from different tables or passages of the source.
Experiments:
[1] = target: T1, mCD1d:Ig fusion protein (CD1d) (Mus musculus, UniProt P11609); test: Competitive binding assay on microarray (Ki in solution); settings: for binding to CD1d in competition assay (in words): relative to α-GalCer or parent compound; for Ki: competition against surface compound 1, CD1d ~100-200 nM
T1 construct: purchased BD Bioscience
T1 sequence (P11609 22-305 limits assumed): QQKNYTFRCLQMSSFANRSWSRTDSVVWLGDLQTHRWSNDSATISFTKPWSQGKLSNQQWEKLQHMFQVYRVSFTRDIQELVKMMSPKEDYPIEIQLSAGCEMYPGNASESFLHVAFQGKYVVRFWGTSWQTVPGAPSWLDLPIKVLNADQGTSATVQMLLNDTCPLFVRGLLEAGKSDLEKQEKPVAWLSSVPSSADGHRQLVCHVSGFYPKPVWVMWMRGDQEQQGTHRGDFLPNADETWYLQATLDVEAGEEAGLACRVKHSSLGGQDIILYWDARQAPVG
T1 sequence (P01887 21-119 partner): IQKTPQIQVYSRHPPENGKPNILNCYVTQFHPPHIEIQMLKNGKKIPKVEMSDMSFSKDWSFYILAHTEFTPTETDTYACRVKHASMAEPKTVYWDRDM
From the text: Determination of Ki. The solution equilibrium dissociation constant (Ki) for glycolipid-CD1d interactions can be determined using microarrays in a competitive assay. The equation that describes the binding of the two ligands to the same site on the protein is identical to that for the competitive inhibition of an enzyme-catalyzed reaction. It is possible to take advantage of the convenience of IC50 measurements and still report inhibitory potency in terms of true Ki values. The final forms of the relationship can be expressed as
In this assay, the concentration of the protein is kept constant at or near the KD, surf (˜100-200 nM of CD1d). The glass slide is incubated with solutions containing varying concentrations of the glycolipid (covering about two orders of magnitude) and the protein.
Microarray Fabrication. Microarrays were printed (Genomic Solutions, Gene Machine) by robotic pin (SMP2B, TeleChem International Inc.). Approximately […] of various concentrations of amine-containing compounds 1-4 in DMSO were deposited onto slides from a 384 well plate. The slide for: (1) the scope of printing concentration studies: NHS-coated glass slides were printed with compounds 1-4 at 20 different concentrations (1000, 800, 600, 400, 200, 100, 80, 60, 40, 20, 10, 8, 6, 4, 2, 1, 0.8, 0.6, 0.4, 0.2 μM) from right to left with 10 replicates vertically placed in each sub-array. Six identical sub-arrays were fabricated in a 1×6 pattern and each sub-array consisted of a 20×10 pattern of spots, with a 0.3 mm pitch. After 2 h, the surface of the slide was divided by permanent marker to avoid contamination for later protein incubation; (2) the slide for FIG. 2 was printed with compound 1 with concentrations of 1000 (left most column), 900, 800, 700, 600, 500, 400, 300, 200, 100, 80, 60, 40, 20, 10, 5 μM (right-most column, 16 different conc.) with 16 replicates vertically placed in each grid, and totally 16 replicate (8×2 pattern) sub-arrays in one slide; (3) the slides for Ki determinations: the slides were printed of compound 1 with concentration of 1000, 900, 800 μM from right to left 81 replicates placed in each grid (9×9 pattern) and totally 44 sub-arrays replicates (4×11 pattern, each subarray is approximately 5 mm (width)×6 mm (length) area) in one slide. After 24 hours reaction, the slides were washed with PBST buffer (0.05% Tween 20) for 30 min and then blocked with blocking solution (super-block blocking buffer in PBS, Pierce) for another 1 h. The slides were dried under a flow of argon gas and stored at room temperature in a desiccator. The slides were washed with PBS buffer (pH 7.4) before use.
Competitive Binding Assay. Solutions of the competitors at different concentration (400 to 0.1 μM) were prepared and 5 μl aliquots incubated with protein (5 μl, 100˜250 nM). The mixture was then placed in a 384 well microtiter plate, covered, and left for five to eight hours. An aliquot of this solution (8 μL) was loaded onto the slides and incubated for 1 hour under a humidifying container at room temperature. The following procedure is the same as above the direct binding assay in washing procedure and applying secondary antibody. To get the data, Each inhibitor was assayed under this system at least three times and average Ki values are reported.
Data analysis. Extraction of spot intensity data was performed using ArrayVision 8.0 (Applied Precision). The background, calculated as the median of pixel intensities from the local area around each spot, was subtracted from the mean pixel intensity within each spot. To graphically represent the data, the values of the background-subtracted signal intensities were plotted against the known concentration of the protein spotted in the array, using the commercial non-linear regression program GraphPad PRISM 4 (GraphPad, San Diego). The values obtained from the competition assay were plotted against the known concentrations of the competitors applied on the slide. […]

[2] = tested on: human Vα24+ NKT cell line co-cultured with Hela cells transfected with human CD1d; test: Cytokine secretion assay using human NKT cell lines, IFN-γ by ELISA; format: cell-based; settings: 10 ng/ml glycolipid, 24 hours; for IFN-γ secretion (in words): relative to α-GalCer
Protocol: Generation of Vα24+ human NKT cell lines. Human NKT cell lines, expressing the Vα24+ T cell receptor (TCR), were generated as follows: Vα24+ T cells and CD14+ cells were isolated from leukopaks using magnetic beads (Miltenyi biotec, Auburn, Calif.) coupled to an anti-Vα24+ TCR monoclonal antibody and an anti-CD14 monoclonal antibody, respectively. Immature dendritic cells were generated from the CD14+ cells after a three-day incubation in the presence of 300 U/ml GM-CSF (R&D systems, Minneapolis, Minn.) and 100 U/ml IL-4 (R&D systems, Minneapolis, Minn.). Following irradiation with 3000 rads, the immature dendritic cells were co-cultured with syngeneic Vα24+ T cells in the presence of 100 ng/ml of α-galactosylceramide and 10 IU/ml of IL-2 (R&D systems, Minneapolis, Minn.) for 10 days.
Cytokine Secretion Assay using human NKT cell lines. Twenty-thousand cells of a human NKT cell line and 2×10^4 Hela cells transfected with human CD1d that had been irradiated for 10,000 rads, were co-cultured in the presence of 10 ng/ml of each glycolipid in a 96-well plate. After culture for 24 hours, the concentration of IFN-γ or IL-4 in the culture supernatants was determined by ELISA (BD Pharmingen, San Diego, Calif.).

[3] = target: CD1d; settings: read-out: dissociation constant from ITC; cited from earlier work
[4] = Water solubility of glycolipids; format: physicochemical
[5] = target: CD1d; settings: read-out: dissociation constant from IEF; cited from earlier work

Row | SMILES | binding to CD1d in competition assay (in words) [1] | IFN-γ secretion (in words) [2] | selectivity IFN-γ vs IL-4 (in words) [2] | further results
1 | CCCCCCCCCCCCCC[C@@H](O)[C@@H](O)[C@H](CO[C@H]1O[C@H](CO)[C@H](O)[C@H](O)[C@H]1O)NC(=O)CCCCCCc1ccccc1 [Compound 12] | about one order of magnitude stronger with CD1d than α-GalCer | – | – | –
2 | CCCCCCCCCCCCCC[C@@H](O)[C@@H](O)[C@H](CO[C@H]1O[C@H](CO)[C@H](O)[C@H](O)[C@H]1O)NC(=O)CCCCCCCc1ccccc1 [Compound 13] | about one order of magnitude stronger with CD1d than α-GalCer | peak IFN-γ secretions among the spacer chain elongation in acyl modification (11-17) | – | –
3 | CCCCCCCCCCCCCC[C@@H](O)[C@@H](O)[C@H](CO[C@H]1O[C@H](CO)[C@H](O)[C@H](O)[C@H]1O)NC(=O)CCCCCCCCCCc1ccccc1 [Compound 16] | about one order of magnitude stronger with CD1d than α-GalCer | – | – | –
4 | CCCCCCCCCCCCCC[C@@H](O)[C@@H](O)[C@H](CO[C@H]1O[C@H](CO)[C@H](O)[C@H](O)[C@H]1O)NC(=O)CCCCCCCCCCCCCCc1ccccc1 [Compound 17] | weaker affinities to CD1d | less IFN-γ production | low selectivity between IFN-γ and IL-4 | –
5 | CCCCCCCCCCCCCC[C@@H](O)[C@@H](O)[C@H](CO[C@H]1O[C@H](CO)[C@H](O)[C@H](O)[C@H]1O)NC(=O)CCCCCCCc1ccc(F)cc1 [Compound 18] | bind most strongly to CD1d; also recorded: enhance the binding by approximately one order of magnitude, compared with parent compound 13 | induce the most IFN-γ secretions; also recorded: highest IFN-γ cytokine production, more than double that of the α-GalCer induced IFN-γ secretion | more than three times more selective for IFN-γ release | Ki [1]: 0.14 µM; binding to CD1d in competition assay (in words) ([1]; listed as para-fluoroheptaphenyl-modified α-GalCer): two orders of magnitude stronger than α-GalCer
6 | CCCCCCCCCCCCCC[C@@H](O)[C@@H](O)[C@H](CO[C@H]1O[C@H](CO)[C@H](O)[C@H](O)[C@H]1O)NC(=O)CCCCCCCc1ccc(OC)cc1 [Compound 19] | – | highest IFN-γ cytokine production, more than double that of the α-GalCer induced IFN-γ secretion | – | –
7 | CCCCCCCCCCCCCC[C@@H](O)[C@@H](O)[C@H](CO[C@H]1O[C@H](CO)[C@H](O)[C@H](O)[C@H]1O)NC(=O)CCCCCCCc1ccc(-c2ccccc2)cc1 [Compound 21] | lower binding activity; also recorded: weaker affinities to CD1d | less IFN-γ production | low selectivity between IFN-γ and IL-4 | –
8 | CCCCCCCCCCCCCC[C@@H](O)[C@@H](O)[C@H](CO[C@H]1O[C@H](CO)[C@H](O)[C@H](O)[C@H]1O)NC(=O)CCCCCCCCCCc1ccc(-c2ccccc2)cc1 [Compound 25] | lower binding activity | – | – | –
9 | CCCCCCCCCCCCCCCCCCCCCCCCCC(=O)N[C@@H](CO[C@H]1O[C@H](CO)[C@H](O)[C@H](O)[C@H]1O)[C@H](O)[C@H](O)CCc1ccccc1 [Compound 26] | weaker agonist of mCD1d | – | – | –
10 | CCCCCCCCCCCCCCCCCCCCCCCCCC(=O)N[C@@H](CO[C@H]1O[C@H](CO)[C@H](O)[C@H](O)[C@H]1O)[C@H](O)[C@H](O)CCCCCCCCCCCCCC [α-GalCer, α-galactosyl ceramide] | – | – | – | Kd [3]: 9.7 µM; solubility in aqueous solution (in words) [4]: low solubility; Kd [5]: 5.9 µM; Ki [1]: 14 µM
